Results from patent US11707462B2, “Checkpoint kinase 1 (CHK1) inhibitors and uses thereof” (Boundless Bio, Inc., priority 2021, dated 2023).
pIC50: −log10 of the molar value.

Columns and labels:
p-CHK1 (Ser345) = experiment: AlphaLISA SureFire Ultra p-CHK1 (Ser345) cellular assay in HT29 cells; assay type: cell-based; settings: Homo sapiens, HT-29, 16 h at 37° C.
Procedure, shortened: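 HT29 cells treated with compounds over a 10-point, 3-fold dilution series for 16 h at 37° C., then lysed; p-CHK1 (Ser345) in lysates measured by AlphaLISA SureFire Ultra (acceptor and donor steps 1 h each at room temperature). IC50 from dose-response curve fits.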

[1] = target: T1, Full-length human Chk1 protein (Homo sapiens, UniProt O14757); experiment: Kinase HTRF biochemical assay (HTRF KinEASE), Chk1 enzyme activity; settings: full-length human Chk1, ATP 1 mM, 60 minutes at room temperature
T1 construct: purchased Carna Biosciences, Inc. 02-117
T1 sequence (O14757 1-476): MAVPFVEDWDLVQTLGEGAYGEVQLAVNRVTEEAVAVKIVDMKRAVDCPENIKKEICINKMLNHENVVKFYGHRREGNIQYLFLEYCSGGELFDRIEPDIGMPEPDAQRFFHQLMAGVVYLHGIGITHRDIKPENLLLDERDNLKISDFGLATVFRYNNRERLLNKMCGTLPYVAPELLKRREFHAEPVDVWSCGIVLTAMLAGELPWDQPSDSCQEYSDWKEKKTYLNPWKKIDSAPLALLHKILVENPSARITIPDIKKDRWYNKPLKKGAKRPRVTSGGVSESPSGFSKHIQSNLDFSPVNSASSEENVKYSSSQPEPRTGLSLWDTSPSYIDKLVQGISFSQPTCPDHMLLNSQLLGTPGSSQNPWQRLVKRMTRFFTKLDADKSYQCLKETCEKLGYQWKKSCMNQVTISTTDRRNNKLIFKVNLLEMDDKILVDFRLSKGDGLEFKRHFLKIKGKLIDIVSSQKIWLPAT
Procedure, shortened: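 Full-length human Chk1 (0.012 ng/μL) in buffer with 5 mM MgCl2 and 1 mM DTT, preincubated with compound 10 min at room temperature; reaction with 120 nM biotinylated STK substrate 1 and 1 mM ATP for 60 min at room temperature. HTRF detection via cryptate antibody/streptavidin-XL665; IC50 from 10-point duplicate curves.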

SMILES	pIC50 (p-CHK1 (Ser345))	pIC50 [1]
Cc1cc(-c2cc(Nc3cnc(C#N)cn3)n[nH]2)c(O[C@@H]2CC[C@@H](N)C2)cc1F [Example 3-27, 5-((5-(2-(((1R,3R)-3-aminocyclopentyl)oxy)-4-fluoro-5-methylphenyl)-1H-pyrazol-3-yl)amino)pyrazine-2-carbonitrile]	7.00 to 7.30	≥ 8.00
N#Cc1cnc(Nc2cc(-c3c(F)cccc3O[C@H]3CCCC[C@H](N)C3)[nH]n2)cn1 [Example 3-38, 5-((5-(2-(((1S,3S)-3-aminocycloheptyl)oxy)-6-fluorophenyl)-1H-pyrazol-3-yl)amino)pyrazine-2-carbonitrile]	7.00 to 7.30	≥ 8.00
CN[C@@H]1CC[C@@H](Oc2cc(C)cc(F)c2-c2cc(Nc3cnc(C#N)cn3)n[nH]2)C1 [Example 5-3, 5-((5-(2-fluoro-4-methyl-6-(((1R,3R)-3-(methylamino)cyclopentyl)oxy)phenyl)-1H-pyrazol-3-yl)amino)pyrazine-2-carbonitrile]	≥ 7.30	≥ 8.00
